Laboratory results from patent publication US11414416B1, “Compounds and uses thereof” (Foghorn Therapeutics Inc., priority 2019, dated 2022).
Like-named read-outs stand apart in the source and are kept apart here.

Biological target: Nanoluciferase-BRD9 fusion protein (Homo sapiens (Human), UniProt Q9H8M2)
Assay: SYO1 BRD9 NanoLuc degradation assay
Type: cell-based
Conditions: SYO-1 cells expressing 3×FLAG-NLuc-BRD9, 6 hours, read-out: SYO1 BRD9-NanoLuc degradation IC50
Method in brief: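 Degradation was read as loss of nanoluciferase signal (Nano-Glo) after 6 h compound exposure in a stable SYO-1 line carrying 3×FLAG-NLuc-BRD9 (8000 cells/well). Normalised between DMSO (high) and a 1 μM known BRD9 degrader (low).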

Nanoluciferase-BRD9 fusion protein, sequence (Q9H8M2 whole entry, the tested form may be a part): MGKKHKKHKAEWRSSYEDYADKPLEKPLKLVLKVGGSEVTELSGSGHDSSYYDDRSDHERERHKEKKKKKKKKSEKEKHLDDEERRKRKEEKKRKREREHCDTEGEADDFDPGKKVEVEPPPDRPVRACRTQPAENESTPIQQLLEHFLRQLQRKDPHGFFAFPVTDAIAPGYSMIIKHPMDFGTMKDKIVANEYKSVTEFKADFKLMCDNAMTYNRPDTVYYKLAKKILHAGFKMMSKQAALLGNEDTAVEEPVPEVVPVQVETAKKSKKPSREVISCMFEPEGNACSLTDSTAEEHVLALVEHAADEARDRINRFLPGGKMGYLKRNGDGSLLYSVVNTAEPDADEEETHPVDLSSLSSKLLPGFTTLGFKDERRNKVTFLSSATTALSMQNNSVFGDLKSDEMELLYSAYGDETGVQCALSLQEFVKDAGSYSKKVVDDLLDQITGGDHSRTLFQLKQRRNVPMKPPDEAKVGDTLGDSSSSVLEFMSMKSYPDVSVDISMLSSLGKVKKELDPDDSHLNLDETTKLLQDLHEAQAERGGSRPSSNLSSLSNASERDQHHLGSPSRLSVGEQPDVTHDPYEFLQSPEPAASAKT

SMILES	DC50 (Table 5B)	DC50 (Table 5C)	other results
COc1cc(-c2cn(C)c(=O)cc2C)cc(OC)c1CN1CC(CN2CCC3(CC2)CN(c2ccc4c(c2)C(=O)N(C2CCC(=O)NC2=O)C4=O)C3)C1 (stereo not shown) [Compound D349]	< 10 nM	–	–
COc1cc(-c2cn(C)c(=O)c3cnccc23)cc(OC)c1CN1CCC2(CC1)CN(c1cccc(C(=O)NC3CCC(=O)NC3=O)c1)C2 (stereo not shown) [Compound D392]	–	10 to 100 nM	–
COc1cc(-c2cc(C(F)F)c(=O)n(C)c2)cc(OC)c1CN1CCC2(C1)CN(c1ccn3c(=O)n(C4CCC(=O)NC4=O)nc3c1)C2 (stereo not shown) [Compound D432]	–	10 to 100 nM	–
C/C=C/Cn1cc(-c2cc(OC)c(CN3CCC4(CC3)CN(c3ccc5c(c3)C(=O)N(C3CCC(=O)NC3=O)C5)C4)c(OC)c2)c2cc(C)[nH]c2c1=O (stereo not shown) [Compound D467]	–	> 1000 nM	–
COc1cc(-c2cc(C(F)F)c(=O)n(C)c2)cc(OC)c1CN1CCC(CN2CCC3(CC2)CN(c2ccc4c(c2)C(=O)N(C2CCC(=O)NC2=O)C4)C3)CC1 (stereo not shown) [Compound D407]	–	< 10 nM	–
COc1cc(-c2cn(C)c(=O)c3[nH]cc(C)c23)cc(OC)c1CN1CCC2(CC1)CN(c1ccc3c(c1)C(=O)N(C1CCC(=O)NC1=O)C3)C2 (stereo not shown) [Compound D426]	–	< 10 nM	–
COc1cc(-c2cn(C)c(=O)c3cnccc23)cc(OC)c1CN1CCN(C(=O)CC#Cc2ccc3c(c2)C(=O)N(C2CCC(=O)NC2=O)C3=O)CC1 (stereo not shown) [Compound D316]	< 10 nM	–	–
COc1cc(-c2cn(C)c(=O)c3cnccc23)cc(OC)c1CN(C)C(=O)CCCCNC1CCC12CN(c1ccc3c(c1)C(=O)N(C1CCC(=O)NC1=O)C3=O)C2 (stereo not shown) [Compound D255]	< 10 nM	–	–
COc1cc(-c2cn(C)c(=O)c3cnccc23)cc(OC)c1CN1CCC2(CC1)CC(NC(=O)CCOCCOc1cccc3c1C(=O)N(C1CCC(=O)NC1=O)C3=O)C2 (stereo not shown) [Compound D82]	–	–	DC50 (Table 5A): 10 to 100 nM
COc1cc(-c2cn(C)c(=O)c3cnccc23)cc(OC)c1CN(C)CCCCN1CC2(CC(Oc3ccc4c(c3)C(=O)N(C3CCC(=O)NC3=O)C4=O)C2)C1 (stereo not shown) [Compound D251]	< 10 nM	–	–
COc1cc(-c2cn(C)c(=O)c3cnccc23)cc(OC)c1CN1CCC2(CC1)CN(CCOc1ccc3c(c1)C(=O)N(C1CCC(=O)NC1=O)C3=O)CCO2 (stereo not shown) [Compound D49, 5-[2-(9-[[2,6-dimethoxy-4-(2-methyl-1-oxo-2,7-naphthyridin-4-yl)phenyl]methyl]-1-oxa-4,9-diazaspiro[5.5]undecan-4-yl)ethoxy]-2-(2,6-dioxopiperidin-3-yl)isoindole-1,3-dione]	–	–	DC50 (Table 5A): > 1000 nM
COc1cc(-c2cc(C)c(=O)n(C)c2)c(OC)cc1CN1CC(CN2CCC3(CC2)CN(c2ccc4c(c2)C(=O)N(C2CCC(=O)NC2=O)C4=O)C3)C1 (stereo not shown) [Compound D353]	< 10 nM	–	–
COc1cc(-c2cn(C)c(=O)c3cnccc23)cc(OC)c1CN(C)C(=O)CCCCN1CCC2(C1)CN(c1ccc3c(c1)C(=O)N(C1CCC(=O)NC1=O)C3=O)C2 (stereo not shown) [Compound D203]	< 10 nM	–	–
COc1cc(-c2cc(C)c(=O)n(C)c2)cc(OC)c1CN1CC(C(=O)NCCCCCCCCNc2cccc3c2C(=O)N(C2CCC(=O)NC2=O)C3=O)C1 (stereo not shown) [Compound D16, 2-(2,6-dihydroxypiperidin-3-yl)-4-[(8-[[hydroxy(1-[[4-(6-hydroxy-1,5-dimethyl-1,6-dihydropyridin-3-yl)-2,6-dimethoxyphenyl]methyl]azetidin-3-yl)methyl]amino]octyl)amino]-2,3-dihydro-1H-isoindole-1,3-diol formic acid]	–	–	DC50 (Table 5A): < 10 nM
C/C=C/Cn1cc(-c2cc(OC)c(CN3CCN(c4ccc5c(c4)C(=O)N(C4CCC(=O)NC4=O)C5)CC3)c(OC)c2)c2cc(C)[nH]c2c1=O (stereo not shown) [Compound D468]	–	> 1000 nM	–
COc1cc(-c2cc(C(F)F)c(=O)n(C)c2)cc(OC)c1CN1CCC2(CC1)CN(c1ccc3c(c1)C(=O)N(C1CCC(=O)NC1=O)C3)C2 (stereo not shown) [Compound D425]	–	< 10 nM	–
COc1cc(-c2cn(C)c(=O)c3ccnnc23)cc(OC)c1CN1CCC(CN2CCC3(CC2)CC(Oc2ccc4c(c2)CN(C2CCC(=O)NC2=O)C4=O)C3)CC1 (stereo not shown) [Compound D366]	< 10 nM	–	–
COc1cc(-c2cn(C)c(=O)c3cnccc23)cc(OC)c1CN1CCC2(CC1)CCN(C(=O)CC#Cc1ccc3c(c1)C(=O)N(C1CCC(=O)NC1=O)C3=O)C2 (stereo not shown) [Compound D313]	< 10 nM	–	–
C/C=C/Cn1cc(-c2ccc(CN3CCC4(CC3)CN(c3ccc5c(c3)C(=O)N(C3CCC(=O)NC3=O)C5)C4)c(Cl)c2)n2cncc2c1=O (stereo not shown) [Compound D465]	–	< 10 nM	–
COc1cc(-c2cc(C)c(=O)n(C)n2)cc(OC)c1CN1CCC2(CC1)CN(c1ccc3c(c1)CN(C1CCC(=O)NC1=O)C3=O)C2 (stereo not shown) [Compound D357]	< 10 nM	–	–
COc1cc(-c2cn(C)c(=O)c3cnccc23)cc(OC)c1CN1CC2(C1)CN(C(=O)CCC#Cc1ccc3c(c1)C(=O)N(C1CCC(=O)NC1=O)C3=O)C2 (stereo not shown) [Compound D200]	10 to 100 nM	–	–
COc1cc(-c2cc(C)c(=O)n(C)c2)cc(OC)c1CN1CCC2(CCN(c3ccc4c(c3)C(=O)N(C3CCC(=O)NC3=O)C4=O)C2)C1 (stereo not shown) [Compound D336]	< 10 nM	–	–
COc1cc(-c2cn(C)c(=O)c3cnccc23)cc(OC)c1CN1CCC2(CC1)CN(c1ccc3c(c1)C(=O)N(C1CC(=O)NC1=O)C3)C2 (stereo not shown) [Compound D382]	–	< 10 nM	–

SMILES	DC50 (Table 5B)	DC50 (Table 5C)	other results
COc1cc(-c2cn(C)c(=O)c3cnccc23)cc(OC)c1CN1CCC2(CC1)CN(c1ccc3c(c1)C(=O)N(C1CCC(=O)NC1)C3)C2 (stereo not shown) [Compound D390]	–	> 1000 nM	–
COc1cc(-c2cc(C(F)F)c(=O)n(C)c2)cc(OC)c1CN1CCN(CCC2CCN(c3ccc4c(c3)C(=O)N(C3CCC(=O)NC3=O)C4=O)CC2)CC1 (stereo not shown) [Compound D398]	–	< 10 nM	–
COc1cc(-c2cn(C)c(=O)c3cnccc23)cc(OC)c1CN1CCC(n2ccc(COc3ccc4c(c3)C(=O)N(C3CCC(=O)NC3=O)C4=O)n2)CC1 (stereo not shown) [Compound D323]	< 10 nM	–	–
COc1cc(-c2cn(C)c(=O)c3cnccc23)cc(OC)c1CN1CC2(CC(C(=O)NCCCCCCNc3cccc4c3C(=O)N(C3CCC(=O)NC3=O)C4=O)C2)C1 (stereo not shown) [Compound D21]	–	–	DC50 (Table 5A): > 1000 nM
COc1cc(-c2cn(C)c(=O)c3cnccc23)cc(OC)c1CN1CCC2(CC1)CN(c1ccc3c(c1)C(=O)N(C1CC(=O)NC(=O)C1)C3)C2 [Compound D474]	–	> 1000 nM	–
COc1cc(-c2cn(C)c(=O)c3cnccc23)cc(OC)c1CN(C)C(=O)CCCCN1CC2(CC(Oc3ccc4c(c3)C(=O)N(C3CCC(=O)NC3=O)C4=O)C2)C1 (stereo not shown) [Compound D230]	< 10 nM	–	–
COc1cc(-c2cc(C)c(=O)n(C)c2)cc(OC)c1CN1CCC2(CC1)CN(c1ccc3c(c1)C(=O)N(C1CCC(=O)NC1=O)C3=O)C2 (stereo not shown) [Compound D331]	< 10 nM	–	–
COc1cc(-c2cn(C)c(=O)c3cnccc23)cc(OC)c1CN1CC(CC(=O)N2CCC3(CC2)CC(Oc2ccc4c(c2)C(=O)N(C2CCC(=O)NC2=O)C4=O)C3)C1 (stereo not shown) [Compound D80]	–	–	DC50 (Table 5A): < 10 nM
COc1cc(-c2cn(C)c(=O)c3cnccc23)cc(OC)c1CN(C)C(=O)CCCCNC1CC2(C1)CN(c1ccc3c(c1)C(=O)N(C1CCC(=O)NC1=O)C3=O)C2 (stereo not shown) [Compound D204]	< 10 nM	–	–
COc1cc(-c2cc(C)c(=O)n(C)c2)cc(OC)c1CN1CCN(c2ccc3c(c2)C(=O)N(C2CCC(=O)NC2=O)C3=O)CC1 (stereo not shown) [Compound D330]	< 10 nM	–	–
CNC(=O)NCc1cc(-c2cc(OC)c(CN3CC(CN4CCC5(CC4)CN(c4ccc6c(c4)C(=O)N(C4CCC(=O)NC4=O)C6)C5)C3)c(OC)c2)cn(C)c1=O (stereo not shown) [Compound D364]	100 to 1000 nM	–	–
COc1cc(-c2cc(C)c(=O)n(C)c2C)cc(OC)c1CN1CC(CN2CCC3(CC2)CN(c2ccc4c(c2)C(=O)N(C2CCC(=O)NC2=O)C4=O)C3)C1 (stereo not shown) [Compound D346]	< 10 nM	–	–
COc1cc(-c2cn(C)c(=O)c3cn(C)nc23)cc(OC)c1CN1CCC(CN2CCC3(CC2)CN(c2ccc4c(c2)C(=O)N(C2CCC(=O)NC2=O)C4)C3)CC1 (stereo not shown) [Compound D405]	–	< 10 nM	–
COc1cc(-c2cn(C)c(=O)c3cnccc23)cc(OC)c1CN1CC(CC(=O)N2CCC3(C2)CN(c2ccc4c(c2)C(=O)N(C2CCC(=O)NC2=O)C4=O)C3)C1 (stereo not shown) [Compound D193]	100 to 1000 nM	–	–
COc1cc(-c2cn(C)c(=O)c3cnccc23)cc(OC)c1CN(C)C(=O)CCCCN1CCC2(CC1)CC(Oc1ccc3c(c1)C(=O)N(C1CCC(=O)NC1=O)C3=O)C2 (stereo not shown) [Compound D208]	< 10 nM	–	–
COc1cc(-c2cn(C)c(=O)c3cnccc23)cc(OC)c1CN1CCC2(CC1)CN(c1ccc3c(c1)C(=O)N(C1CCCNC1=O)C3)C2 (stereo not shown) [Compound D389]	–	> 1000 nM	–
COc1cc(-c2cn(C)c(=O)c3cnccc23)cc(OC)c1CN1CC2(CN(CCOc3ccc4c(c3)C(=O)N(C3CCC(=O)NC3=O)C4=O)C2)C1 (stereo not shown) [Compound D43, 5-[2-(6-[[2,6-Dimethoxy-4-(2-methyl-1-oxo-2,7-naphthyridin-4-yl)phenyl]methyl]-2,6-diazaspiro[3.3]heptan-2-yl)ethoxy]-2-(2,6-dioxopiperidin-3-yl)isoindole-1,3-dione formic acid]	–	–	DC50 (Table 5A): 100 to 1000 nM
COc1cc(-c2cn(C)c(=O)c(C#N)c2C)cc(OC)c1CN1CC(CN2CCC3(CC2)CN(c2ccc4c(c2)C(=O)N(C2CCC(=O)NC2=O)C4=O)C3)C1 (stereo not shown) [Compound D351]	> 1000 nM	–	–
COc1cc(-c2cn(C)c(=O)c3cnccc23)cc(OC)c1CN1CCC(C(=O)N2CCC3(CC2)CC(Oc2ccc4c(c2)C(=O)N(C2CCC(=O)NC2=O)C4=O)C3)CC1 (stereo not shown) [Compound D221]	< 10 nM	–	–
COc1cc(-c2cn(C)c(=O)c3cnccc23)cc(OC)c1CN1CCC2(CC1)CN(c1ccc3c(c1)C(=O)N(C1CCCC(=O)NC1=O)C3=O)C2 (stereo not shown) [Compound D388]	–	< 10 nM	–
COc1cc(-c2cc(C)c(=O)n(C)c2)cc(OC)c1CN1CCC(C#Cc2ccc3c(c2)C(=O)N(C2CCC(=O)NC2=O)C3)CC1 (stereo not shown) [Compound D443]	–	< 10 nM	–
COc1cc(-c2cn(C)c(=O)c3cnccc23)cc(OC)c1CN(C)CCCCNC1CC2(C1)CC(Oc1ccc3c(c1)C(=O)N(C1CCC(=O)NC1=O)C3=O)C2 (stereo not shown) [Compound D257]	< 10 nM	–	–
COc1cc(-c2cn(C)c(=O)c(C)n2)cc(OC)c1CN1CCC2(CC1)CN(c1ccc3c(c1)C(=O)N(C1CCC(=O)NC1=O)C3)C2 (stereo not shown) [Compound D461]	–	10 to 100 nM	–
